Assay results published in US12421205B2, “GLP-1 receptor agonist” (HYUNDAI PHARM CO., LTD., priority 2019, dated 2025).
Where two headings read alike, the source gives them in different places.

Key:
human GLP-1 receptor = biological target: T1, human GLP-1 receptor (Homo sapiens, UniProt P43220); test: cAMP activity test (cAMP dynamic HTRF kit) in CHO-K1/GLP-1 receptor-expressing cells; format: cell-based
T1 construct: host or cells: CHO-K1
Description: The next day, the medium was removed, and a 50 uL of HBSS medium containing 0.1% BSA, 0.5 mM IBMX, and 5 mM HEPES was added to each well. […] The cAMP activity was measured according to the manufacturer's instructions using the cAMP dynamic HTRF kit (Cisbio, 62AM4PEC). After incubation, the medium was discarded, and the cells were lysed. cAMP-d2 and anti-cAMP cryptate conjugate were added thereto and reacted for 3 hours. […] Intracellular cAMP competes with cAMP-d2 for anti-cAMP cryptate, and the measured signal of fluorescence resonance energy transfer (FRET) is inversely proportional to intracellular cAMP.

hERG = biological target: T2, hERG (Homo sapiens, UniProt Q12809); test: hERG inhibition test (Predictor hERG Fluorescence Polarization assay kit); format: binding; settings: probe kit Tracer (fluorescent hERG ligand), hERG % inhibition at 10 uM, relative to E-4031 and solvent control
T2 construct: purchased Invitrogen PV5365
T2 sequence (Q12809 whole entry): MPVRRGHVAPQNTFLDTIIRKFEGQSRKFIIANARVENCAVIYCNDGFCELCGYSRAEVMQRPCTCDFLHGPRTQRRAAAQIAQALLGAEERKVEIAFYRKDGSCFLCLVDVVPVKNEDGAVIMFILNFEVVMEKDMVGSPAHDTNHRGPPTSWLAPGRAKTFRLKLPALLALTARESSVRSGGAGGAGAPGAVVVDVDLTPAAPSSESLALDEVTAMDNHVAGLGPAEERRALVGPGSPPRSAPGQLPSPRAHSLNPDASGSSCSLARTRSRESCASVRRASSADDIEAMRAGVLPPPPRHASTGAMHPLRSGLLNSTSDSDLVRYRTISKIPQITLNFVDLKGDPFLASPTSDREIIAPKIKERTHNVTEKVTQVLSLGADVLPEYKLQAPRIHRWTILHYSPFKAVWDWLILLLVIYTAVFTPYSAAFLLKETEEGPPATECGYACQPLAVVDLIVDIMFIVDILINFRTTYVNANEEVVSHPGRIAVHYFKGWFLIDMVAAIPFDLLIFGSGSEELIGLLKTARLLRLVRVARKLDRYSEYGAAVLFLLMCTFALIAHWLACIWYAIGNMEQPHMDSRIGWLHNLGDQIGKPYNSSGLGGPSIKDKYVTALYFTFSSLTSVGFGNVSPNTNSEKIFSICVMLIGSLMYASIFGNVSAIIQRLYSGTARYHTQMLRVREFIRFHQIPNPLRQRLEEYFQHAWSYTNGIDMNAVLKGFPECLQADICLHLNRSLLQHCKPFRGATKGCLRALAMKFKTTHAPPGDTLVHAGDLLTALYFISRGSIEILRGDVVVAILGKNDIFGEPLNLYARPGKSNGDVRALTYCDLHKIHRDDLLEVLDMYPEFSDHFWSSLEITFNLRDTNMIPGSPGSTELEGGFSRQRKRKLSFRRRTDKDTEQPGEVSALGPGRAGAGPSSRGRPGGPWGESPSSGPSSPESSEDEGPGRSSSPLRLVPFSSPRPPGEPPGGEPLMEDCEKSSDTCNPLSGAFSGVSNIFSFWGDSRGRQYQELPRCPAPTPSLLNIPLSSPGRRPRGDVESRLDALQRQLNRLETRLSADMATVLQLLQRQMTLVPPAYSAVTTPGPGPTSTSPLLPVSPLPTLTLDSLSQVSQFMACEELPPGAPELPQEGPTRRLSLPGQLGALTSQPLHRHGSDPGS
Description: To measure the hERG (Human ether-a-go-go-related gene) channel inhibition rate of the compound according to the present invention, the following test was performed using a Predictor hERG Fluorescence Polarization assay kit (Invitrogen, PV5365).
Specifically, a test substance was dissolved in DMSO to prepare a 50 mM solution. A 4 mM solution was prepared by diluting the 50 mM solution with DMSO in a U bottom 96-well plate (SPL, 34096), and was then diluted 100-fold with a test buffer to prepare a 40 uM (4×) solution. The positive control E-4031 (3 mM) provided in the kit was diluted 25-fold with a test buffer to prepare a 120 uM solution) 5 uL of the diluted test substance solution was dispensed into a 384-well assay plate (corning, 3677). hERG Membrane (2×) and Tracer (4×) provided in the kit were respectively added at 10 uL and 5 uL, and then subjected to the reaction at room temperature for 2.5 hours. After completion of the reaction, fluorescence polarization (mP) was measured with a Multimode Plate Reader (Perkin-Elmer, Envision) (excitation wavelength of 531 nm, and emission wavelength 579 nm). The value of the percent inhibitory activity (% inhibition) at 10 uM of each test substance was calculated by the following equation, and the results are shown in Table 2: (% inhibition)=100−{(mP of the compound according to the present invention−E-4031 mP)/(mP of the solvent control−E-4031 mP)}×100

[1] = cAMP activity, CHO-K1/GLP-1 receptor-expressing cells, read-out: EC50

T1 sequence (P43220 24-463): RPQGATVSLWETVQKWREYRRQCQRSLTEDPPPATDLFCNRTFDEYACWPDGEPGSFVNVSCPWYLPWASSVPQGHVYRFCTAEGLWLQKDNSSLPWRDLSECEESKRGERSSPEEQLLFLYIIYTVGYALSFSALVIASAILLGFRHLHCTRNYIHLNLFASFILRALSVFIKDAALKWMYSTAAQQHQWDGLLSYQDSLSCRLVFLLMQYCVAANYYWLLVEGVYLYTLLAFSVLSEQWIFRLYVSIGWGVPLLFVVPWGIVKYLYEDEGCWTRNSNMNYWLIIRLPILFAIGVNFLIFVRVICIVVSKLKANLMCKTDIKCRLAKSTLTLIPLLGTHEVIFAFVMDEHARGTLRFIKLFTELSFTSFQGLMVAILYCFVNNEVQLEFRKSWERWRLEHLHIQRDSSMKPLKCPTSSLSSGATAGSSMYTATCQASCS

Compound	EC50 (human GLP-1 receptor) [µM]	inhibition at 2.5 h, 10 µM (hERG) [%]	EC50 (human GLP-1 receptor; [1]) [µM]
COCCn1c(Cc2ccc(-c3cccc(OCc4ccc(C#N)cc4F)n3)c(F)c2)nc2ccc(C(=O)O)cc21 [Example 38, 2-(4-(6-(4-cyano-2-fluorobenzyloxy)pyridin-2-yl)-3-fluorobenzyl)-1-(2-methoxyethyl)-1H-benzo[d]imidazole-6-carboxylic acid]	0.14	9.5	–
O=C(O)c1ccc2nc(Cc3ccc(-c4cccc(OCc5ccc(Cl)cc5F)n4)cc3F)n(Cc3ccco3)c2c1 [Example 13, 2-(4-(6-(4-chloro-2-fluorobenzyloxy)pyridin-2-yl)-2-fluorobenzyl)-1-(furan-2-ylmethyl)-1H-benzo[d]imidazole-6-carboxylic acid]	–	-7.76	0.035
O=C(O)c1ccc2nc(Cc3ccc(-c4cccc(OCc5nc6ccccc6s5)n4)c(F)c3)n(C[C@@H]3CCO3)c2c1 [Example 132, (S)-2-(4-(6-(benzo[d]thiazol-2-ylmethoxy)pyridin-2-yl)-3-fluorobenzyl)-1-(oxetan-2-ylmethyl)-1H-benzo[d]imidazole-6-carboxylic acid]	–	-7.11	0.46
COCCn1c(Cc2ccc(-c3cccc(OCc4ccc(Cl)cc4F)n3)cc2F)nc2ccc(C(=O)O)cc21 [Example 3, 2-(4-(6-(4-chloro-2-fluorobenzyloxy)pyridin-2-yl)-2-fluorobenzyl)-1-(2-methoxyethyl)-1H-benzo[d]imidazole-6-carboxylic acid]	–	8.39	0.032
N#Cc1ccc(COc2cccc(-c3ccc(Cc4nc5ccc(C(=O)O)cc5n4Cc4ccco4)cc3)n2)c(F)c1 [Example 18, 2-(4-(6-(4-cyano-2-fluorobenzyloxy)pyridin-2-yl)benzyl)-1-(furan-2-ylmethyl)-1H-benzo[d]imidazole-6-carboxylic acid]	–	7.37	0.11
O=C(O)c1ccc2nc(Cn3ccc(-c4cccc(OCc5ccc(Cl)cc5F)c4)cc3=O)n(CC3CCCO3)c2c1 (centres unmarked) [Example 106, 2-((4-(3-(4-chloro-2-fluorobenzyloxy)phenyl)-2-oxopyridin-1(2H)-yl)methyl)-1-((tetrahydrofuran-2-yl)methyl)-1H-benzo[d]imidazole-6-carboxylic acid]	–	-2.71	0.11
O=C(O)c1ccc2nc(Cc3ccc(-c4cccc(OCc5ccc(Cl)cc5F)n4)c(F)c3)n(C[C@@H]3CCO3)c2c1 [Example 79, (S)-2-(4-(6-(4-chloro-2-fluorobenzyloxy)pyridin-2-yl)-3-fluorobenzyl)-1-(oxetan-2-ylmethyl)-1H-benzo[d]imidazole-6-carboxylic acid]	–	-2.04	< 0.0032
N#Cc1ccc(COc2cccc(-c3ccc(Cc4nc5ccc(C(=O)O)cc5n4CC4CCCO4)c(F)c3)n2)cc1 (centres unmarked) [Example 87, 2-(4-(6-(4-cyanobenzyloxy)pyridin-2-yl)-2-fluorobenzyl)-1-((tetrahydrofuran-2-yl)methyl)-1H-benzo[d]imidazole-6-carboxylic acid]	–	32.9	0.018
N#Cc1ccc(COc2cccc(-c3cc(F)c(Cc4nc5ccc(C(=O)O)cc5n4CC4CCCO4)cc3F)n2)c(F)c1 (centres unmarked) [Example 71, 2-(4-(6-(4-cyano-2-fluorobenzyloxy)pyridin-2-yl)-2,5-difluorobenzyl)-1-((tetrahydrofuran-2-yl)methyl)-1H-benzo[d]imidazole-6-carboxylic acid]	–	-2.52	< 0.0032
N#Cc1ccc(COc2cccc(-c3ccc(Cc4nc5ccc(C(=O)O)cc5n4Cc4ccco4)c(F)c3)n2)c(F)c1 [Example 19, 2-(4-(6-(4-cyano-2-fluorobenzyloxy)pyridin-2-yl)-2-fluorobenzyl)-1-(furan-2-ylmethyl)-1H-benzo[d]imidazole-6-carboxylic acid]	–	1.8	0.04
CCn1cncc1Cn1c(Cc2ccc(-c3cccc(OCc4ccc(Cl)cc4F)n3)cc2F)nc2ccc(C(=O)O)cc21 [Example 72, 2-(4-(6-(4-chloro-2-fluorobenzyloxy)pyridin-2-yl)-2-fluorobenzyl)-1-((1-ethyl-1H-imidazole-5-yl)methyl)-1H-benzo[d]imidazole-6-carboxylic acid]	–	-5.75	< 0.0032
O=C(O)c1ccc2nc(Cc3ccc(-c4cccc(OCc5ccc(Cl)cc5F)n4)cc3F)n(C[C@H]3CCCO3)c2c1 [Example 51, (R)-2-(4-(6-(4-chloro-2-fluorobenzyloxy)pyridin-2-yl)-2-fluorobenzyl)-1-((tetrahydrofuran-2-yl)methyl)-1H-benzo[d]imidazole-6-carboxylic acid]	–	-4.69	0.052
N#Cc1ccc(COc2cccc(-c3ccc(Cc4nc5ccc(C(=O)O)cc5n4CC4CCCO4)cc3F)n2)c(F)c1 (centres unmarked) [Example 130, 2-(4-(6-((4-cyano-2-fluorobenzyl)oxy)pyridin-2-yl)-3-fluorobenzyl)-1-((tetrahydrofuran-2-yl)methyl)-1H-benzo[d]imidazole-6-carboxylic acid]	–	-6.76	0.021
O=C(O)c1ccc2nc(Cc3ccc(-c4cccc(OCc5ccc(F)c(F)c5)n4)cc3F)n(CC3CCCO3)c2c1 (centres unmarked) [Example 85, 2-(4-(6-(3,4-difluorobenzyloxy)pyridin-2-yl)-2-fluorobenzyl)-1-((tetrahydrofuran-2-yl)methyl)-1H-benzo[d]imidazole-6-carboxylic acid]	–	-12.9	0.074
N#Cc1ccc(COc2cccc(-c3ccc(Cc4nc5ccc(C(=O)O)cc5n4Cc4ccco4)cc3)c2)c(F)c1 [Example 27, 2-((3′-(4-cyano-2-fluorobenzyloxy)biphenyl-4-yl)methyl)-1-(furan-2-ylmethyl)-1H-benzo[d]imidazole-6-carboxylic acid]	–	-4.76	0.27
O=C(O)c1ccc2nc(Cc3ccc(-c4cccc(OCc5c(F)cccc5Cl)n4)c(F)c3)n(C[C@@H]3CCO3)c2c1 [Example 126, (S)-2-(4-(6-((2-chloro-6-fluorobenzyl)oxy)pyridin-2-yl)-3-fluorobenzyl)-1-(oxetan-2-ylmethyl)-1H-benzo[d]imidazole-6-carboxylic acid]	–	-3.99	0.51
N#Cc1ccc(COc2cccc(-c3ccn(Cc4nc5ccc(C(=O)O)cc5n4C[C@@H]4CCO4)c(=O)c3)n2)c(F)c1 [Example 111, (S)-2-((4-(6-(4-cyano-2-fluorobenzyloxy)pyridin-2-yl)-2-oxopyridin-1(2H)-yl)methyl)-1-(oxetan-2-ylmethyl)-1H-benzo[d]imidazole-6-carboxylic acid]	–	1.32	0.02
O=C(O)c1ccc2nc(Cc3ccc(-c4cccc(OCc5ccccc5)n4)cc3F)n(CC3CCCO3)c2c1 (centres unmarked) [Example 83, 2-(4-(6-(benzyloxy)pyridin-2-yl)-2-fluorobenzyl)-1-((tetrahydrofuran-2-yl)methyl)-1H-benzo[d]imidazole-6-carboxylic acid]	–	2.37	0.16
O=C(O)c1ccc2nc(Cc3ccc(-c4cccc(OCc5ccc(Cl)cc5F)n4)c(F)c3F)n(CC3CCCO3)c2c1 (centres unmarked) [Example 61, 2-(4-(6-(4-chloro-2-fluorobenzyloxy)pyridin-2-yl)-2,3-difluorobenzyl)-1-((tetrahydrofuran-2-yl)methyl)-1H-benzo[d]imidazole-6-carboxylic acid]	–	-6.72	0.0087
O=C(O)c1ccc2nc(Cc3ccc(-c4ccc(F)c(OCc5ccc(Cl)cc5F)c4)c(F)c3)n(CC3CCCO3)c2c1 (centres unmarked) [Example 92, 2-((3′-(4-chloro-2-fluorobenzyloxy)-2,4′-difluorobiphenyl-4-yl)methyl)-1-((tetrahydrofuran-2-yl)methyl)-1H-benzo[d]imidazole-6-carboxylic acid]	–	8.68	0.078
O=C(O)c1ccc2nc(Cc3ccc(-c4cccc(OCc5ccc(Cl)cc5F)c4)cc3F)n(CC3CCCO3)c2c1 (centres unmarked) [Example 16, 2-((3′-(4-chloro-2-fluorobenzyloxy)-3-fluorobiphenyl-4-yl)methyl)-1-((tetrahydrofuran-2-yl)methyl)-1H-benzo[d]imidazole-6-carboxylic acid]	–	-0.94	0.082
Cc1cc(-c2cccc(OCc3ccc(C#N)cc3F)n2)ccc1Cc1nc2ccc(C(=O)O)cc2n1CC1CCCO1 (centres unmarked) [Example 68, 2-(4-(6-(4-cyano-2-fluorobenzyloxy)pyridin-2-yl)-2-methylbenzyl)-1-((tetrahydrofuran-2-yl)methyl)-1H-benzo[d]imidazole-6-carboxylic acid]	–	-11.4	0.029
